Marks after values point to notes of the source that are not given here.
Experiments:
3T3-L1 cells = experiment: 3T3-L1 preadipocyte differentiation (aP2 expression); assay type: cell-based; conditions: Mus musculus, 3T3-L1, 120 h; 100 nM rosiglitazone, 5 days; read-out: IC50, block of rosiglitazone stimulated aP2 expression
Experimental: 3T3-L1 cells were obtained from American Type Culture Collection. Passage numbers 3 to 9 were used in all the studies. Monolayer fibroblasts were maintained in medium A (Dulbecco's modified Eagle's medium with 10% fetal calf serum, 100 units/ml penicillin, and 100 μg/ml streptomycin) at 37° C. in 5% CO2. […] Total RNA was prepared using Ultraspec™ RNA isolation system (Biotecx, Houston, Tex.). RNA concentration was quantitated by absorbance at 260 nm. Equal amount of RNA samples were denatured in formamide/formaldehyde and applied to Hybond™-N membranes (Amersham) using a slot blot apparatus (BioRad). Prehybridization was performed at 42° C. for 1-3 h in 40-50% formamide in a solution containing 25 mM sodium phosphate, pH 7.4, 0.9 M sodium chloride, 50 mM sodium citrate, 0.1% each of gelatin, ficoll, and polyvinylpyrollidone, 0.5% SDS, and 100 μg/ml denatured salmon sperm DNA. Hybridization was carried out at the same temperature for 20h in the same solution with ^32P-labeled aP2 cDNA probe (2×10^6 cpm/ml). After washing the membranes under appropriately stringent conditions, the hybridization signals were analyzed with a Phosphorlmager (Molecular Dynamics).

fat-fed C57BL/6J mice = experiment: Fat-fed C57BL/6J mice, obesity and metabolic parameters; assay type: in vivo; conditions: HF diet + 50 mg/kg/day
Experimental: At the end of that time the animals had gained 16g, 22 g and 20.5 g, respectively (FIG. 3). […] Analysis of whole body triglyceride content and protein content were performed as described in Moller et al (Endocrinology 137:2397-2405, 1996). […] Thus, treatment with the PPARγ antagonist caused relative decreases in body adiposity and increases in lean body mass in fat fed mice. The plasma levels of glucose, triglycerides and free fatty acid levels were all increased in the HF group relative to the LF group (see Table below).

ob/ob mice = experiment: ob/ob mice, plasma insulin; assay type: in vivo; conditions: once daily dosing
Source text: The PPAR-gamma antagonists/partial agonists are therefore effective in treating the obesity and other symptoms that generally occur in non-insulin dependent diabetes, such as elevated levels of glucose, triglycerides, and insulin in the plasma.

Question: What does the source list for `O=C(O)c1c(Sc2ccccc2)c2cc(Cl)ccc2n1Cc1ccc(Cl)cc1` [Compound I, 1-(p-chlorobenzyl)-5-chloro-3-thiophenylindole-2-carboxylic acid]?
Answer: IC50 (3T3-L1 cells): ~300 nM; body weight gained (fat-fed C57BL/6J mice; 72 days): 20.5 g; Plasma free fatty acids (fat-fed C57BL/6J mice; mean +/- SE of 10 mice): 0.536 +/− 0.02* mM; Plasma glucose (fat-fed C57BL/6J mice; mean +/- SE of 10 mice): 145.6 +/− 4.1* mg/dl; Plasma triglycerides (fat-fed C57BL/6J mice; mean +/- SE of 10 mice): 71.4 +/− 4.1** mg/dl; Serum insulin (fat-fed C57BL/6J mice; mean +/- SE of 10 mice): 1.35 ± 0.21 ng/mL; reduction in elevated levels of mean plasma insulin (ob/ob mice): 30-50%

Reference: patent publication US20030032581A1, “Pharmaceuticals for treating obesity” (priority 1999, published 2003)
